The values that follow come from patent publication US20120190546A1, “HERBICIDAL COMPOSITION AND METHOD OF USE THEREOF” (SYNGENTA CROP PROTECTION LLC, priority 2007, published 2012).

Assay [1] has as its system white clover (Trifolium repens). In words: Glasshouse trial: control of white clover with mesotrione and oxadiazon applied post-emergence. In kind it is in vivo. Further details: key to Synergy (actual vs expected), Plus Mesotrione at 100 g ai/ha / Synergy (actual vs expected), Plus Mesotrione at 150 g ai/ha: ‘n’indicates no synergy observed; *indicates synergy. The note with it: for Synergy (actual vs expected), Plus Mesotrione at 100 g ai/ha / Synergy (actual vs expected), Plus Mesotrione at 150 g ai/ha: Student-Newman-Keuls test; for Actual weed control, Plus Mesotrione at 100 g ai/ha / Actual weed control, Plus Mesotrione at 150 g ai/ha: X-77 0.1% v/v, evaluated 7 and 14 DAT (not said which). Here is the method: (§1) In the following tests, herbicides were applied at reduced field rates because herbicide effects are magnified in a glasshouse environment. The rates tested were selected to give between about 50 and 70% control with herbicides applied alone, so that any synergistic effect could be readily detected when testing mixtures.
(§2) A glasshouse trial was carried out. White clover seeds were sown into standard glasshouse potting mix (1:1 v/v Promix:Vero sand soil) contained in 10 cm square plastic pots. Treatments were replicated three times. Mesotrione (in the form Callisto® 480SE) was applied post-emergence to white clover (Trifolium repens) at either 100 g ai/ha or 150 g ai/ha with or without oxadiazon (in the form Ronstar®). When used, oxadiazon was applied at a rate of 210 g ai/ha or 420 g ai/ha. The adjuvant system was X-77 at 0.1% v/v in deionised water. 200 litres of herbicide/adjuvant system was used per hectare. General weed control was evaluated at 7 and 14 days after treatment (DAT). It is noted that all herbicides were applied at reduced field rates because herbicide effects are magnified in a glasshouse environment. Rates were chosen to give a 50 to 70% level of control with herbicides applied alone as this allows for detection of any synergistic effect when tank mixtures are used.
(§3) The results were evaluated using the Colby formula. The expected result for (A+B) is (A+B)−(AxB/100) where A and B are the ‘observed’ results for A and B on their own.

Another assay deals with white clover. As to the kind of experiment: Glasshouse trial: control of white clover with mesotrione and oxadiazon applied pre-emergence. Further details: key to Synergy (actual vs expected), Plus Mesotrione at 25 g ai/ha / Synergy (actual vs expected), Plus Mesotrione at 50 g ai/ha: ‘n’indicates no synergy observed; *indicates synergy. The assay is classed as in vivo, Trifolium repens. Here is the method: as §1, §2, §3
A glasshouse trial was carried out as described in Example 1, except that the herbicidal composition was applied pre-emergence, and lower rates of mesotrione were used as indicated below.

The mark [2] stands for this setting: oxadiazon 210 g ai/ha + mesotrione 100 g ai/ha.
[3] abbreviates: oxadiazon 210 g ai/ha + mesotrione 150 g ai/ha.
Where [4] appears, read: oxadiazon 420 g ai/ha + mesotrione 100 g ai/ha.
Where [5] appears, read: oxadiazon 420 g ai/ha + mesotrione 150 g ai/ha.
The mark [6] stands for this setting: oxadiazon 210 g ai/ha + mesotrione 25 g ai/ha.
[7] abbreviates: oxadiazon 210 g ai/ha + mesotrione 50 g ai/ha.
Where [8] appears, read: oxadiazon 420 g ai/ha + mesotrione 25 g ai/ha.
The mark [9] stands for this setting: oxadiazon 420 g ai/ha + mesotrione 50 g ai/ha.

Take “5-tert-butyl-3-(2,4-dichloro-5-isopropoxyphenyl)-1,3,4-oxadiazol-2(3M-one [Oxadiazon]”: in assay [1] (setting [2]), the “Expected weed control (Colby formula), Plus Mesotrione at 100 g ai/ha” value is listed as 48%; the “Synergy (actual vs expected), Plus Mesotrione at 100 g ai/ha” value was “n”; the “Actual weed control, Plus Mesotrione at 100 g ai/ha” value came out at 48%. Also, in assay [1] (setting [3]), the “Expected weed control (Colby formula), Plus Mesotrione at 150 g ai/ha” value stood at 68%; the “Synergy (actual vs expected), Plus Mesotrione at 150 g ai/ha” value is listed as “*”; the “Actual weed control, Plus Mesotrione at 150 g ai/ha” value is 77%. In addition, in assay [1] (setting [4]), the “Expected weed control (Colby formula), Plus Mesotrione at 100 g ai/ha” value came to 49%; the “Synergy (actual vs expected), Plus Mesotrione at 100 g ai/ha” value was “*”; the “Actual weed control, Plus Mesotrione at 100 g ai/ha” value is given as 75%. Moreover, in assay [1] (setting [5]), the “Expected weed control (Colby formula), Plus Mesotrione at 150 g ai/ha” value stood at 69%; the “Synergy (actual vs expected), Plus Mesotrione at 150 g ai/ha” value is recorded as “*”; the “Actual weed control, Plus Mesotrione at 150 g ai/ha” value was 77%. In addition, in the assay with white clover (setting [6]), the “Actual weed control, Plus Mesotrione at 25 g ai/ha” value is on record as 100%; the “Expected weed control (Colby formula), Plus Mesotrione at 25 g ai/ha” value is 77%; the “Synergy (actual vs expected), Plus Mesotrione at 25 g ai/ha” value is “*”. In the assay with white clover (setting [7]), the “Actual weed control, Plus Mesotrione at 50 g ai/ha” value is recorded as 98%; the “Expected weed control (Colby formula), Plus Mesotrione at 50 g ai/ha” value worked out at 83%; the “Synergy (actual vs expected), Plus Mesotrione at 50 g ai/ha” value is listed as “*”. Further, in the assay on white clover (setting [8]), the “Actual weed control, Plus Mesotrione at 25 g ai/ha” value worked out at 97%; the “Expected weed control (Colby formula), Plus Mesotrione at 25 g ai/ha” value was 96%; the “Synergy (actual vs expected), Plus Mesotrione at 25 g ai/ha” value is “*”. Moreover, in the assay with white clover (setting [9]), the “Actual weed control, Plus Mesotrione at 50 g ai/ha” value amounted to 100%; the “Expected weed control (Colby formula), Plus Mesotrione at 50 g ai/ha” value is recorded as 97%; the “Synergy (actual vs expected), Plus Mesotrione at 50 g ai/ha” value was “*”.
